# Assay results taken from US20250154134A1, “COMPOUND AS FAK INHIBITOR AND USE THEREOF” (WIGEN BIOMEDICINE TECHNOLOGY (SHANGHAI) CO., LTD., priority 2022, published 2025).
# Experiments:
# [1] = biological target: FAK recombinant protein (Homo sapiens (Human), UniProt Q05397); experiment: Inhibitory activity against FAK enzyme (HTRF, TK substrate); type: biochemical
# Experimental: A compound serially diluted with DMSO was mixed with a FAK recombinant protein. After the mixture was left to stand at room temperature for 10 min, a biotin-labeled TK substrate (TK) and ATP were added. […] The inhibition percentage and IC50 of the compound were calculated compared to the DMSO control group.
# [2] = system: PC3 cells; experiment: PC3 cell proliferation, 2D activity assay (Cell Titer-Lumi, 72 h); type: cell-based, human; settings: Homo sapiens, PC-3, read-out: 2D inhibitory activity against PC3 cells IC50
# [3] = system: PC3 cells; experiment: PC3 cell proliferation, 3D activity assay (3D culture, 14 days); type: cell-based, human; settings: Homo sapiens, PC-3, 336 h, read-out: 3D inhibitory activity against PC3 cells IC50
# Chain of FAK recombinant protein (Q05397 whole entry): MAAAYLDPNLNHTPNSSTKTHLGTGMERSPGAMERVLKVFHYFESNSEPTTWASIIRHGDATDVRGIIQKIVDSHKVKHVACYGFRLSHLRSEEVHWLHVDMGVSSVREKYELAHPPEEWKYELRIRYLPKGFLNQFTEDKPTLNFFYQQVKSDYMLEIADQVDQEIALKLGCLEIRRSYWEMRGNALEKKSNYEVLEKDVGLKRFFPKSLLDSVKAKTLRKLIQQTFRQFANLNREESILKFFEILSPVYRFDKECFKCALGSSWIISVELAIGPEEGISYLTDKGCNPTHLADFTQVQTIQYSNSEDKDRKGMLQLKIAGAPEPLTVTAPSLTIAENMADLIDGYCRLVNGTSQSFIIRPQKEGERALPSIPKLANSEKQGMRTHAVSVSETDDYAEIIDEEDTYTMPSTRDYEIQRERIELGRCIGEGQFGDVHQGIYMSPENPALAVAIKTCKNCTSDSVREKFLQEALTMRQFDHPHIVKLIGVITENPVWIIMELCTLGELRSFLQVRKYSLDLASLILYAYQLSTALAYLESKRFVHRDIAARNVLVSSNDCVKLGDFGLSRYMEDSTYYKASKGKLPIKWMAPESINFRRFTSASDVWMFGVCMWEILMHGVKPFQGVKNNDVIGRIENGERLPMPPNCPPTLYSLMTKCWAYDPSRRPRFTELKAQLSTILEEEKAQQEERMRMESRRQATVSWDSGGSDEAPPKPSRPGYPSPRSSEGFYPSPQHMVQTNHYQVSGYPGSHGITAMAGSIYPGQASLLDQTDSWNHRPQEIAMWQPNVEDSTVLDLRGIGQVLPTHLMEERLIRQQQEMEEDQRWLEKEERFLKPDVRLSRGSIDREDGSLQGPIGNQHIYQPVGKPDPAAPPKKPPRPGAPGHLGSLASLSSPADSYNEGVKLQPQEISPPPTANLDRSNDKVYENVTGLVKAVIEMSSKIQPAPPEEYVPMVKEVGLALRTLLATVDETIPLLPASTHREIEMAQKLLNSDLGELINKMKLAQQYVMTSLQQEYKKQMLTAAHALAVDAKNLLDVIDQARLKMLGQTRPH
IC50 [1] [nM],IC50 [2] [nM],IC50 [3] [nM],Compound
< 20,> 2000,5 to 50,"COc1cc(C(=O)NC2CC3(CCN(C)CC3)C2)ccc1Nc1ncc(Cl)c(Oc2cccc3c2C(=O)N(C)C32CC2)n1 [Compound 133, 4-((5-chloro-4-((2′-methyl-3′-oxospiro[cyclopropane-1,1′-isoindolin]-4′-yl)oxy)pyrimidin-2-yl)amino)-3-methoxy-N-(7-methyl-7-azaspiro[3.5]nonan-2-yl)benzamide]"
< 20,> 2000,< 5,"COc1cc(C2CCN(C)CC2)c(F)cc1Nc1ncc(Cl)c(Oc2cccc3c2C(=O)N(C)C32CC2)n1 [Compound 134, 4′-((5-chloro-2-((5-fluoro-2-methoxy-4-(1-methylpiperidin-4-yl)phenyl)amino)pyrimidin-4-yl)oxy)-2′-methylspiro[cyclopropane-1,1′-isoindolin]-3′-one]"
< 20,> 2000,< 5,"COc1cc(C2CCN(C)CC2)ccc1Nc1ncc(Cl)c(Oc2cccc3c2C(=O)N(C)C32CC2)n1 [Compound 135, 4′-((5-chloro-2-((2-methoxy-4-(1-methylpiperidin-4-yl)phenyl)amino)pyrimidin-4-yl)oxy)-2′-methylspiro[cyclopropane-1,1′-isoindolin]-3′-one]"
< 20,> 2000,< 5,COc1cc(N2CCC(N3CCN(C)CC3)CC2)c(F)cc1Nc1ncc(Cl)c(Oc2cccc3c2C(=O)N(C)C32CC2)n1 [Compound 138]
< 20,> 2000,5 to 50,COc1cc(N2CCN(C)CC2)c(F)cc1Nc1ncc(Cl)c(Oc2cccc3c2C(=O)N(C)C32CC2)n1 [Compound 140]
< 20,> 2000,< 5,COCCN1CCN(c2ccc(Nc3ncc(Cl)c(Oc4cccc5c4C(=O)N(C)C54CC4)n3)c(OC)c2)CC1 [Compound 142]
< 20,> 2000,< 5,COCCN1CCN(c2cc(OC)c(Nc3ncc(Cl)c(Oc4cccc5c4C(=O)N(C)C54CC4)n3)cc2F)CC1 [Compound 143]
< 20,> 2000,< 5,COc1cc(N2CCN(CC(=O)N(C)C)CC2)ccc1Nc1ncc(Cl)c(Oc2cccc3c2C(=O)N(C)C32CC2)n1 [Compound 144]
< 20,> 2000,5 to 50,COc1cc(N2CC3(CN(C)C3)C2)c(F)cc1Nc1ncc(Cl)c(Oc2cccc3c2C(=O)N(C)C32CC2)n1 [Compound 145]
< 20,> 2000,5 to 50,COc1cc(N2CC3(CN(C)C3)C2)ccc1Nc1ncc(Cl)c(Oc2cccc3c2C(=O)N(C)C32CC2)n1 [Compound 146]
< 20,> 2000,< 5,COc1cc(N2CCC3(CCN(C)CC3)CC2)ccc1Nc1ncc(Cl)c(Oc2cccc3c2C(=O)N(C)C32CC2)n1 [Compound 147]
< 20,> 2000,< 5,COc1cc(N2CCC3(CC2)CN(C)C3)c(F)cc1Nc1ncc(Cl)c(Oc2cccc3c2C(=O)N(C)C32CC2)n1 [Compound 148]
< 20,> 2000,< 5,COc1cc(N2CCC3(CC2)CN(C)C3)ccc1Nc1ncc(Cl)c(Oc2cccc3c2C(=O)N(C)C32CC2)n1 [Compound 149]
< 20,> 2000,< 5,COc1cc(N2CCC3(CCN(C)C3)C2)c(F)cc1Nc1ncc(Cl)c(Oc2cccc3c2C(=O)N(C)C32CC2)n1 (stereo not drawn) [Compound 150]
< 20,> 2000,< 5,COc1cc(N2CCC3(CCN(C)C3)C2)ccc1Nc1ncc(Cl)c(Oc2cccc3c2C(=O)N(C)C32CC2)n1 (stereo not drawn) [Compound 151]
< 20,> 2000,5 to 50,COc1cc(N2CCC(N(C)C)CC2)c(F)cc1Nc1ncc(Cl)c(Oc2cccc3c2C(=O)N(C)C32CC2)n1 [Compound 152]
< 20,> 2000,< 5,"COc1cc(CN2CCN(C)CC2)ccc1Nc1ncc(Cl)c(Oc2cccc3c2C(=O)N(C)C32CC2)n1 [Compound 153, 4′-((5-chloro-2-((2-methoxy-4-((4-methylpiperazin-1-yl)methyl)phenyl)amino)pyrimidin-4-yl)oxy)-2′-methylspiro[cyclopropane-1,1′-isoindolin]-3′-one]"
< 20,> 2000,5 to 50,COc1cc(CNC2CCN(C)CC2)ccc1Nc1ncc(Cl)c(Oc2cccc3c2C(=O)N(C)C32CC2)n1 [Compound 155]
< 20,> 2000,5 to 50,COc1cc(CN(C)C2CCN(C)CC2)c(F)cc1Nc1ncc(Cl)c(Oc2cccc3c2C(=O)N(C)C32CC2)n1 [Compound 156]

IC50 [1] [nM],IC50 [2] [nM],IC50 [3] [nM],Compound
< 20,> 2000,< 5,"COc1cc(N2CC(N3CCN(C)CC3)C2)ccc1Nc1ncc(Cl)c(Oc2cccc3c2C(=O)N(C)C32CC2)n1 [Compound 157, 4′-((5-chloro-2-((2-methoxy-4-(3-(4-methylpiperazin-1-yl)azetidin-1-yl)phenyl)amino)pyrimidin-4-yl)oxy)-2′-methylspiro[cyclopropane-1,1′-isoindolin]-3′-one]"
< 20,> 2000,5 to 50,COc1cc(N2CC(N3CC(N(C)C)C3)C2)ccc1Nc1ncc(Cl)c(Oc2cccc3c2C(=O)N(C)C32CC2)n1 [Compound 158]
< 20,> 2000,5 to 50,COc1cc(N2CC(N(C)C)C2)ccc1Nc1ncc(Cl)c(Oc2cccc3c2C(=O)N(C)C32CC2)n1 [Compound 159]
< 20,> 2000,5 to 50,COc1cc(N2C3CC2CN(C)C3)ccc1Nc1ncc(Cl)c(Oc2cccc3c2C(=O)N(C)C32CC2)n1 [Compound 164]
< 20,> 2000,5 to 50,COc1cc(N2CCC3C(CCN3C)C2)ccc1Nc1ncc(Cl)c(Oc2cccc3c2C(=O)N(C)C32CC2)n1 (stereo not drawn) [Compound 167]
< 20,> 2000,< 5,COc1cc(N2CCC3CN(C)CCC32)ccc1Nc1ncc(Cl)c(Oc2cccc3c2C(=O)N(C)C32CC2)n1 (stereo not drawn) [Compound 168]
< 20,> 2000,< 5,COc1cc(N2CC3CN(C)CC3C2)ccc1Nc1ncc(Cl)c(Oc2cccc3c2C(=O)N(C)C32CC2)n1 (stereo not drawn) [Compound 169]
< 20,> 2000,5 to 50,COc1cc(N2CC3CCN(C)C3C2)ccc1Nc1ncc(Cl)c(Oc2cccc3c2C(=O)N(C)C32CC2)n1 (stereo not drawn) [Compound 170]
< 20,> 2000,5 to 50,COc1cc(N2CCC3CN(C)CC32)ccc1Nc1ncc(Cl)c(Oc2cccc3c2C(=O)N(C)C32CC2)n1 (stereo not drawn) [Compound 172]
< 20,> 2000,< 5,COc1cc(N2CCC3CN(C)CC3C2)ccc1Nc1ncc(Cl)c(Oc2cccc3c2C(=O)N(C)C32CC2)n1 (stereo not drawn) [Compound 173]
< 20,> 2000,< 5,"COc1cc(C(=O)NC2CCN(C)CC2)c(F)cc1Nc1ncc(Br)c(Oc2cccc3c2C(=O)N(C)C32CC2)n1 [Compound 174, 4-((5-bromo-4-((2′-methyl-3′-oxospiro[cyclopropane-1,1′-isoindolin]-4′-yl)oxy)pyrimidin-2-yl)amino)-2-fluoro-5-methoxy-N-(1-methylpiperidin-4-yl)benzamide]"
< 20,> 2000,< 5,COc1cc(C(=O)NC2CC3(CCN(C)CC3)C2)c(F)cc1Nc1ncc(Br)c(Oc2cccc3c2C(=O)N(C)C32CC2)n1 [Compound 175]
< 20,> 2000,< 5,COc1cc(C(=O)NC2CC3(CCN(C)CC3)C2)ccc1Nc1ncc(Br)c(Oc2cccc3c2C(=O)N(C)C32CC2)n1 [Compound 176]
< 20,> 2000,5 to 50,COc1cc(C2CCN(C)CC2)ccc1Nc1ncc(Br)c(Oc2cccc3c2C(=O)N(C)C32CC2)n1 [Compound 179]
< 20,> 2000,5 to 50,COc1cc(C2CCN(C)CC2)c(F)cc1Nc1ncc(Br)c(Oc2cccc3c2C(=O)N(C)C32CC2)n1 [Compound 180]
< 20,> 2000,< 5,COc1cc(N2CCC(N3CCN(C)CC3)CC2)c(F)cc1Nc1ncc(Br)c(Oc2cccc3c2C(=O)N(C)C32CC2)n1 [Compound 181]
< 20,> 2000,< 5,COc1cc(N2CCC(N3CCN(C)CC3)CC2)ccc1Nc1ncc(Br)c(Oc2cccc3c2C(=O)N(C)C32CC2)n1 [Compound 182]
< 20,> 2000,5 to 50,COc1cc(N2CCN(C)CC2)c(F)cc1Nc1ncc(Br)c(Oc2cccc3c2C(=O)N(C)C32CC2)n1 [Compound 183]
< 20,> 2000,5 to 50,COc1cc(N2CCN(C)CC2)ccc1Nc1ncc(Br)c(Oc2cccc3c2C(=O)N(C)C32CC2)n1 [Compound 184]

Compound,IC50 [1] [nM],IC50 [2] [nM],IC50 [3] [nM]
COc1cc(N2CC(N3C4CCC3CN(C)C4)C2)ccc1Nc1ncc(Cl)c(Oc2cccc3c2C(=O)N(C)C32CC2)n1 [Compound 161],< 20,> 2000,< 5
COc1cc(N2CCC(N3CC4CC(C3)N4C)CC2)ccc1Nc1ncc(Cl)c(Oc2cccc3c2C(=O)N(C)C32CC2)n1 [Compound 163],< 20,> 2000,5 to 50
COc1cc(N2CC3CC(C2)N3C)ccc1Nc1ncc(Cl)c(Oc2cccc3c2C(=O)N(C)C32CC2)n1 [Compound 165],< 20,> 2000,5 to 50
COc1cc(N2C3CCC2CN(C)C3)ccc1Nc1ncc(Cl)c(Oc2cccc3c2C(=O)N(C)C32CC2)n1 [Compound 166],< 20,> 2000,5 to 50
